Assay results: US9567345B2, “Pharmaceutically active pyrazolo-triazine derivatives” (LEAD DISCOVERY CENTER GMBH, priority 2012, dated 2017)

Tests used:
Format in all cases: biochemical
CDK2/CycA = molecular target: T1, CDK2/CycA (Homo sapiens, UniProt P24941); test: CDK2 Enzymatic Activity Assay (Lance Kinase Activity Assay, FRET); conditions: for IC50: Table 5B, class symbols per IC50 [nM] ranges of b581, read-out: CDK2: Selectivity of CDK7 inhibition over CDK2 inhibition
T1 construct: purchased Proqinase
Procedure: (§1) This protocol describes how the Lance Kinase Activity Assay was performed to determine IC50 values of compounds of general formula (I) against CDK/Cyclin complexes. The principle behind this enzymatic assay is based upon the phosphorylation of the Ulight-Peptide Substrat. It is detected by using a specific EU-labeled anti-phospho peptide antibody.
(§2) Binding of an inhibitor to the kinase prevents phosphorylation of the Ulight-MBP Substrat, resulting in a loss of FRET.
CDK2 Enzymatic Activity Assay
(§3) The compounds of general formula (I) exemplary summarized in Table 1 were diluted from a 10 mM DMSO stock solution 1:10 in a total volume of 15 μl DMSO. This compound predilution was then serial diluted 1:3 over 8 steps in DMSO and briefly spun down. Each compound solution was now diluted 1:20 in Enzymatic Buffer (HEPES: 50 mM, pH: 7.5; MgCl2: 10 mM; EGTA: 1 mM; DTT: 2 mM; Tween-20: 0.01%), mixed thoroughly and spun down.
(§4) For positive controls, 2 μl of DMSO working solution were mixed with 6 μl CDK2/CycA/substrate working solution and 2 μl ATP working solution. Positive and negative controls were calculated from at least 8 different wells. The 384 well plates were mixed in a Teleshaker plate mixer (Beckman Coulter, Brea, Calif., USA) at 2000 rpm for 40 sec, and incubated for 1 h at room temperature before addition of 10 μl LANCE Detection Buffer (EDTA: […]; Eu-Anti-P-MBP: 4 nM) per well. Plates were mixed in a Teleshaker plate mixer (Beckman Coulter, Brea, Calif., USA) at 2000 rpm for 40 sec, followed by incubation with Detection Buffer for 1 h, and reading. […] IC50 values were determined from the sigmoidal dose response curves with the software Quattro Workflow (Quattro GmbH, Munich, Germany).

CDK7/CycH/Mat1 = CDK7/CycH/Mat1 (Homo sapiens, UniProt P50613); test: CDK7 Enzymatic Activity Assay (Lance Kinase Activity Assay, FRET); conditions: CDK7/CycH/Mat1, 25 μM ATP final; class ranges; read-out: CDK7: IC50 [nM] for CDK7 inhibition
Procedure: as §1, §2
CDK7 Enzymatic Activity Assay
as §3
as §4, with “CDK7/CycH/Mat1/substrate” for “CDK2/CycA/substrate”, “(1×; EDTA:” for “(EDTA:”

CDK9/Cyclin T1 = CDK9/Cyclin T1 (Homo sapiens, UniProt P50750); test: CDK9 Enzymatic Activity Assay (Lance Kinase Activity Assay, FRET); conditions: for IC50: Table 5B, class symbols per IC50 [nM] ranges of b581, read-out: CDK9: Selectivity of CDK7 inhibition over CDK9 inhibition
Procedure: as §1, §2
CDK9 Enzymatic Activity Assay
as §3
as §4, with “CDK9/cyclin T1/substrate” for “CDK2/CycA/substrate”, “(1×; EDTA:” for “(EDTA:”

CDK9/Cyclin T1, sequence (P50750 whole entry): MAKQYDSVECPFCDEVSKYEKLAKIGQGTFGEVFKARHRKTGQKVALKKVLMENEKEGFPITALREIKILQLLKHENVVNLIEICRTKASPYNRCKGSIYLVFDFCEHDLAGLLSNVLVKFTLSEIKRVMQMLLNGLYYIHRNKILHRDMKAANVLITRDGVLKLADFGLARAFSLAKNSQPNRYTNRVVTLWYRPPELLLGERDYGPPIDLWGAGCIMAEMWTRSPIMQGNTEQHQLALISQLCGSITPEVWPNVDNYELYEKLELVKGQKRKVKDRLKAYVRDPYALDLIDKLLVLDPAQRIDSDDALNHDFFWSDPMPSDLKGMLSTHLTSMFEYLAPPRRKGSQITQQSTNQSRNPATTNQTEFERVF
CDK9/Cyclin T1, sequence (O60563 whole entry partner): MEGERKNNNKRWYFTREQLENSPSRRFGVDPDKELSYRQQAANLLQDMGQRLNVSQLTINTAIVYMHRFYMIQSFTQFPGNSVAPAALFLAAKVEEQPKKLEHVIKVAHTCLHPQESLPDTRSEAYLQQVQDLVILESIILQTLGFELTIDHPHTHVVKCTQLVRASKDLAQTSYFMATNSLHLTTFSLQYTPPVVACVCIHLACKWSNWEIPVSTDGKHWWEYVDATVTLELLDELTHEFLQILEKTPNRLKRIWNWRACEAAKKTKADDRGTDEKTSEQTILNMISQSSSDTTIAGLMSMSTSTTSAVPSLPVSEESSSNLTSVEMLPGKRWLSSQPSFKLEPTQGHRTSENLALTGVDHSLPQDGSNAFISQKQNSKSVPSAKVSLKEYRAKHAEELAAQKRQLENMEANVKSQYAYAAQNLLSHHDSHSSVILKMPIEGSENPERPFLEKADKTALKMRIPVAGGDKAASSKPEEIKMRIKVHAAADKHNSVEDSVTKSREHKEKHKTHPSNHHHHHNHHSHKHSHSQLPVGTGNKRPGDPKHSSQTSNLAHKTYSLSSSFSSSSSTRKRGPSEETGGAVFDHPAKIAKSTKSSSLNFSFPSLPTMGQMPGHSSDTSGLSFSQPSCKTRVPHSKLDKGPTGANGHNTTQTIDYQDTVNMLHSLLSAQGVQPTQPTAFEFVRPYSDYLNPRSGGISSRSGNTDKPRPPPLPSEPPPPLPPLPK
CDK7/CycH/Mat1, sequence (P50613 whole entry): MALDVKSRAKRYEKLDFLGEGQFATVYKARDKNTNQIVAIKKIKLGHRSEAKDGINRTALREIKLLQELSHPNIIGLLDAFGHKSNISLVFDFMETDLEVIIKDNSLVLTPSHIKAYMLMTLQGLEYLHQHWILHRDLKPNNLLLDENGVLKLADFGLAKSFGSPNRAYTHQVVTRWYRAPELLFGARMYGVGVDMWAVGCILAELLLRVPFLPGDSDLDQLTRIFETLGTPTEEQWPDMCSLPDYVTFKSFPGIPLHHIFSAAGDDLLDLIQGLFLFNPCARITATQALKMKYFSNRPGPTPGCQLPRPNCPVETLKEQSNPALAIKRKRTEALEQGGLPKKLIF

Row | SMILES | IC50 (CDK2/CycA) | IC50 (CDK7/CycH/Mat1) | IC50 (CDK9/Cyclin T1) | multiplicity of the CDK2 activity in terms of the CDK7 activity (CDK2/CycA; selectivity CDK2 vs CDK7, enzymatic IC50 values) | multiplicity of the CDK9 activity in terms of the CDK7 activity (CDK9/Cyclin T1; selectivity CDK9 vs CDK7, enzymatic IC50 values)
1 | CC(C)c1cnn2c(NCc3ccccc3-n3cccn3)nc(OC3COC4(CCNCC4)C3)nc12 (stereo not shown) [(VII-121), 2-(1-oxa-8-azaspiro[4.5]decan-3-yloxy)-N-(2-(1H-pyrazol-1-yl)benzyl)-8-isopropylpyrazolo[1,5-a][1,3,5]triazin-4-amine] | > 2500 nM | < 5 nM | > 2500 nM | – | –
2 | CC(C)c1cnn2c(NCc3ccccc3-n3cccn3)nc(CNCCN3CCOCC3)nc12 [(XXX-5), N-(2-(1H-pyrazol-1-yl)benzyl)-8-isopropyl-2-(((2-morpholinoethyl)amino)methyl)pyrazolo[1,5-a][1,3,5]triazin-4-amine] | > 2500 nM | > 25 nM | > 2500 nM | – | –
3 | CC(C)c1cnn2c(NCc3ccccc3-n3cccn3)nc(C(=O)N3CC4(CNC4)C3)nc12 [(XII-07), (4-((2-(1H-pyrazol-1-yl)benzyl)amino)-8-isopropylpyrazolo[1,5-a][1,3,5]triazin-2-yl)(2,6-diazaspiro[3.3]heptan-2-yl)methanone] | > 2500 nM | > 25 nM | > 2500 nM | – | –
4 | CC(C)c1cnn2c(NCc3ccccc3-n3cccn3)nc(NCC3CCNC3)nc12 (stereo not shown) [(VIII-052), N4-(2-(1H-pyrazol-1-yl)benzyl)-8-isopropyl-N2-(pyrrolidin-3-ylmethyl)pyrazolo[1,5-a][1,3,5]triazine-2,4-diamine] | > 2500 nM | > 25 nM | > 2500 nM | – | –
5 | CC(C)Oc1ccccc1CNc1nc(O[C@@H]2CCCNC2)nc2c(C(C)C)cnn12 [(VII-18), (R)-N-(2-isopropoxybenzyl)-8-isopropyl-2-(piperidin-3-yloxy)pyrazolo[1,5-a][1,3,5]triazin-4-amine] | 50 to 500 nM | < 5 nM | 500 to 2500 nM | – | –
6 | CNC(=O)c1ccccc1CNc1nc(O[C@@H]2CCCNC2)nc2c(C(C)C)cnn12 [(VII-108), (R)-2-(((8-isopropyl-2-(piperidin-3-yloxy)pyrazolo[1,5-a][1,3,5]triazin-4-yl)amino)methyl)-N-methylbenzamide] | 50 to 500 nM | < 5 nM | > 2500 nM | – | –
7 | CC(C)c1cnn2c(NC(C)c3ccccc3-n3cccn3)nc(O[C@@H]3CCCNC3)nc12 (stereo partly drawn) [(VII-06), N-(1-(2-(1H-pyrazol-1-yl)phenyl)ethyl)-8-isopropyl-2-((R)-piperidin-3-yloxy)pyrazolo[1,5-a][1,3,5]triazin-4-amine] | > 2500 nM | < 5 nM | 50 to 500 nM | – | –
8 | CC(C)c1cnn2c(NCc3cccc(F)c3-n3cccn3)nc(O[C@@H]3CCCNC3)nc12 [(VII-42), (R)-N-(3-fluoro-2-(1H-pyrazol-1-yl)benzyl)-8-isopropyl-2-(piperidin-3-yloxy)pyrazolo[1,5-a][1,3,5]triazin-4-amine] | < 50 nM | < 5 nM | 50 to 500 nM | – | –
9 | CC(C)c1cnn2c(NCc3ccccc3C(F)(F)F)nc(OC3CCN(C)CC3)nc12 [VII-058, 8-isopropyl-2-((1-methylpiperidin-4-yl)oxy)-N-(2-(trifluoromethyl)benzyl)pyrazolo[1,5-a][1,3,5]triazin-4-amine] | > 2500 nM | – | > 2500 nM | – | –
10 | Cc1nccn1-c1ccccc1CNc1nc(O[C@@H]2CCCNC2)nc2c(C(C)C)cnn12 [(VII-23), (R)-8-isopropyl-N-(2-(2-methyl-1H-imidazol-1-yl)benzyl)-2-(piperidin-3-yloxy)pyrazolo[1,5-a][1,3,5]triazin-4-amine] | 500 to 2500 nM | < 5 nM | – | – | –
11 | CC(C)c1cnn2c(NCc3ccccc3-n3cccn3)nc(OC3CNC3)nc12 [VII-141, N-(2-(1H-pyrazol-1-yl)benzyl)-2-(azetidin-3-yloxy)-8-isopropylpyrazolo[1,5-a][1,3,5]triazin-4-amine] | 500 to 2500 nM | – | > 2500 nM | – | –
12 | CC(C)NS(=O)(=O)c1ccccc1CNc1nc(O[C@@H]2CCCNC2)nc2c(C(C)C)cnn12 [(VII-105), (R)-N-isopropyl-2-(((8-isopropyl-2-(piperidin-3-yloxy)pyrazolo[1,5-a][1,3,5]triazin-4-yl)amino)methyl)benzenesulfonamide] | – | > 25 nM | > 2500 nM | – | –
13 | CC(C)c1cnn2c(NCc3ccccc3-n3cccn3)nc(N3CCCC34CCNCC4)nc12 [(VIII-22), N-(2-(1H-pyrazol-1-yl)benzyl)-8-isopropyl-2-(1,8-diazaspiro[4.5]decan-1-yl)pyrazolo[1,5-a][1,3,5]triazin-4-amine] | – | < 5 nM | > 2500 nM | – | –
14 | CC(C)c1cnn2c(NCc3ccccc3-c3cccnc3)nc(O[C@@H]3CCCNC3)nc12 [(VII-46), (R)-8-isopropyl-2-(piperidin-3-yloxy)-N-(2-(pyridin-3-yl)benzyl)pyrazolo[1,5-a][1,3,5]triazin-4-amine] | – | < 5 nM | > 2500 nM | – | –
15 | CC(C)c1cnn2c(NCc3ccccc3-n3cccn3)nc(N3CCC4(CCNCC4)CC3)nc12 [(VIII-26), N-(2-(1H-pyrazol-1-yl)benzyl)-8-isopropyl-2-(3,9-diazaspiro[5.5]undecan-3-yl)pyrazolo[1,5-a][1,3,5]triazin-4-amine] | – | 5 to 10 nM | > 2500 nM | – | –
16 | CC(C)c1cnn2c(NCc3ccccc3-n3ccnc3)nc(OC3CCNCC3)nc12 [(VII-19), N-(2-(1H-imidazol-1-yl)benzyl)-8-isopropyl-2-(piperidin-4-yloxy)pyrazolo[1,5-a][1,3,5]triazin-4-amine] | – | < 5 nM | 500 to 2500 nM | – | –
17 | CC(C)c1cnn2c(NCc3ccccc3-n3cccn3)nc(N3CC4(CCNC4)C3)nc12 [(VIII-02), N-(2-(1H-pyrazol-1-yl)benzyl)-8-isopropyl-2-(2,6-diazaspiro[3.4]octan-2-yl)pyrazolo[1,5-a][1,3,5]triazin-4-amine] | – | < 5 nM | > 2500 nM | – | –
18 | CN1CC[C@H](c2c(O)cc(O)c3c(=O)cc(-c4ccccc4Cl)oc23)[C@H](O)C1 [Flavopiridol, reference compound] | – | – | – | even lower than the CDK 7 activity | even lower than the CDK 7 activity
19 | CC(C)c1cnn2c(NCc3ccccc3-n3cccn3)nc(N3CCCC4(CCCCN4)C3)nc12 (stereo not shown) [(VIII-15), N-(2-(1H-pyrazol-1-yl)benzyl)-8-isopropyl-2-(1,8-diazaspiro[5.5]undecan-8-yl)pyrazolo[1,5-a][1,3,5]triazin-4-amine] | – | 10 to 25 nM | > 2500 nM | – | –
20 | CC(C)c1cnn2c(NCc3ccccc3-n3cccn3)nc(N3CCC34CCNC4)nc12 (stereo not shown) [(VIII-28), N-(2-(1H-pyrazol-1-yl)benzyl)-8-isopropyl-2-(1,6-diazaspiro[3.4]octan-1-yl)pyrazolo[1,5-a][1,3,5]triazin-4-amine] | – | < 5 nM | > 2500 nM | – | –
21 | CC(C)c1cnn2c(NCc3ccccc3-n3cccn3)nc(N3CCC34CCNCC4)nc12 [(VIII-34), N-(2-(1H-pyrazol-1-yl)benzyl)-8-isopropyl-2-(1,7-diazaspiro[3.5]nonan-1-yl)pyrazolo[1,5-a][1,3,5]triazin-4-amine] | – | < 5 nM | > 2500 nM | – | –
22 | COc1ccccc1[C@H](C)Nc1nc(OC2CCN(C)CC2)nc2c(C(C)C)cnn12 [(VII-67), (S)-8-isopropyl-N-(1-(2-methoxyphenyl)ethyl)-2-((1-methylpiperidin-4-yl)oxy)pyrazolo[1,5-a][1,3,5]triazin-4-amine] | – | < 5 nM | > 2500 nM | – | –
